Laboratory results: ChEMBL document CHEMBL1201862, “PubChem BioAssay data set” (2004)
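Where inhibition never reached the appropriate level, the endpoint shown equals the highest concentration tested. Otherwise, values were interpolated linearly from a five-concentration, 48-hour dose response in 96-well plates. GI50: concentration for 50% inhibition of growth.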 Calls of active or inactive are those of the source. Cut-off read from the data, not from the text of the source: active = GI50 up to about 1.1 µM and inactive = higher.

What was measured:
Assay in all cases: NCI tumour cell line growth inhibition, 48 h
SK-MEL-2 = tested on: SK-MEL-2
M14 = tested on: M14
MOLT-4 = tested on: MOLT-4
OVCAR-5 = tested on: OVCAR-5
LOX IMVI = tested on: LOX IMVI
786-0 = tested on: 786-0
COLO 205 = tested on: COLO 205
SF-539 = tested on: SF-539
A549 = tested on: A549
NCI-H522 = tested on: NCI-H522
SK-MEL-28 = tested on: SK-MEL-28
UACC-62 = tested on: UACC-62
HOP-62 = tested on: HOP-62
EKVX = tested on: EKVX
CCRF-CEM = tested on: CCRF-CEM
SR = tested on: SR
UO-31 = tested on: UO-31

Measured: GI50

CCOC(=O)c1nc2ccc([N+](=O)[O-])cc2c2c1CCO2
inactive: SK-MEL-2 > 100 µM | M14 > 100 µM | MOLT-4 > 100 µM | OVCAR-5 > 100 µM | LOX IMVI > 100 µM | 786-0 > 100 µM | COLO 205 > 100 µM | SF-539 > 100 µM | A549 > 100 µM | NCI-H522 92.3 µM | SK-MEL-28 > 100 µM | UACC-62 > 100 µM | HOP-62 > 100 µM | EKVX > 100 µM | CCRF-CEM > 100 µM

O=C(Nc1cc(Cl)ccc1Cl)C(=O)C(c1cnc2ccccc2n1)[N+](=O)[O-] (configuration not stated)
inactive: M14 > 100 µM | MOLT-4 > 100 µM | SR > 100 µM | OVCAR-5 > 100 µM | LOX IMVI > 100 µM | 786-0 > 100 µM | COLO 205 > 100 µM | SF-539 > 100 µM | A549 > 100 µM | NCI-H522 85.1 µM | SK-MEL-28 > 100 µM | UACC-62 > 100 µM | UO-31 > 100 µM | HOP-62 > 100 µM | EKVX > 100 µM | CCRF-CEM > 100 µM

O=C1OC(c2ccccc2)=N/C1=C\c1c(O)cc(O)cc1O
inactive: SK-MEL-2 > 100 µM | M14 60.3 µM | MOLT-4 > 100 µM | OVCAR-5 > 100 µM | LOX IMVI 78.3 µM | 786-0 > 100 µM | COLO 205 > 100 µM | SF-539 > 100 µM | A549 > 100 µM | NCI-H522 47.2 µM | SK-MEL-28 > 100 µM | UACC-62 27.9 µM | UO-31 > 100 µM | EKVX > 100 µM | CCRF-CEM > 100 µM

O=[N+]([O-])c1ccc2nc(/C(=N\Nc3ccccc3)C(O)c3ccc4c(c3)OCO4)c(O)nc2c1 (configuration not stated)
inactive: SK-MEL-2 > 100 µM | M14 > 100 µM | MOLT-4 > 100 µM | SR 91.6 µM | LOX IMVI > 100 µM | 786-0 > 100 µM | COLO 205 > 100 µM | SF-539 > 100 µM | A549 > 100 µM | NCI-H522 39 µM | SK-MEL-28 > 100 µM | UACC-62 34 µM | UO-31 79.3 µM | HOP-62 > 100 µM | EKVX > 100 µM | CCRF-CEM > 100 µM

CC1=CC(=O)N2[C@H](OC[C@@H]2C(C)C)O1
inactive: SK-MEL-2 > 100 µM | M14 > 100 µM | MOLT-4 > 100 µM | SR > 100 µM | 786-0 > 100 µM | COLO 205 > 100 µM | SF-539 > 100 µM | A549 > 100 µM | NCI-H522 > 100 µM | SK-MEL-28 > 100 µM | UACC-62 > 100 µM | UO-31 > 100 µM | HOP-62 > 100 µM | EKVX > 10 µM | CCRF-CEM > 100 µM

O=C1CCC(=O)C(C(=O)CCC(=O)Nc2ccc(Cl)cc2)C1 (configuration not stated)
inactive: SK-MEL-2 > 100 µM | M14 > 100 µM | MOLT-4 > 100 µM | OVCAR-5 > 100 µM | LOX IMVI > 100 µM | 786-0 > 100 µM | COLO 205 > 100 µM | SF-539 > 100 µM | A549 > 100 µM | NCI-H522 > 100 µM | UACC-62 > 100 µM | UO-31 > 100 µM | EKVX > 100 µM | CCRF-CEM > 100 µM

C/N=c1\ss/c(=N\C(=S)N(C)C)n1C1CCCCC1
inactive: SK-MEL-2 > 31.6 µM | M14 > 10 µM | MOLT-4 > 31.6 µM | OVCAR-5 > 31.6 µM | LOX IMVI > 31.6 µM | 786-0 > 10 µM | COLO 205 > 31.6 µM | SF-539 > 100 µM | A549 > 31.6 µM | NCI-H522 > 31.6 µM | SK-MEL-28 > 31.6 µM | UACC-62 > 31.6 µM | UO-31 > 31.6 µM | HOP-62 > 100 µM | EKVX > 31.6 µM | CCRF-CEM > 31.6 µM

Oc1cc(Cl)ncn1
inactive: SK-MEL-2 > 100 µM | M14 > 100 µM | MOLT-4 > 100 µM | OVCAR-5 > 100 µM | LOX IMVI > 100 µM | 786-0 > 100 µM | COLO 205 > 100 µM | A549 > 100 µM | NCI-H522 > 100 µM | SK-MEL-28 > 100 µM | UACC-62 > 100 µM | UO-31 > 100 µM | HOP-62 > 100 µM | EKVX > 100 µM | CCRF-CEM > 100 µM

CCOC(=O)c1cnc2sc3ccc4ccccc4c3n2c1=O
inactive: SK-MEL-2 41.5 µM | M14 81.1 µM | MOLT-4 28.1 µM | SR 40.1 µM | OVCAR-5 > 100 µM | LOX IMVI 47.9 µM | 786-0 > 100 µM | COLO 205 79.3 µM | SF-539 30.1 µM | A549 53.3 µM | SK-MEL-28 98.6 µM | UACC-62 77.6 µM | UO-31 23.9 µM | HOP-62 > 100 µM | EKVX 74 µM | CCRF-CEM 25.1 µM

CC(C)CCS(=O)(=O)OCCCCOS(=O)(=O)CCC(C)C
inactive: M14 16.1 µM | MOLT-4 > 100 µM | SR > 100 µM | LOX IMVI > 100 µM | 786-0 > 100 µM | COLO 205 > 100 µM | SF-539 > 100 µM | A549 > 100 µM | NCI-H522 > 100 µM | SK-MEL-28 > 100 µM | UACC-62 > 100 µM | UO-31 > 100 µM | HOP-62 13.9 µM | EKVX > 100 µM | CCRF-CEM > 100 µM

CC1CN1c1c(C(=O)/C=C/c2ccc(F)cc2)c(-c2ccccc2)nn(C)c1=O (configuration not stated)
inactive: SK-MEL-2 18.2 µM | M14 16.9 µM | MOLT-4 14.3 µM | OVCAR-5 12.3 µM | LOX IMVI 13.7 µM | 786-0 15.4 µM | COLO 205 18.5 µM | SF-539 > 10 µM | A549 18.3 µM | NCI-H522 > 10 µM | SK-MEL-28 17.5 µM | UACC-62 13.6 µM | UO-31 12.9 µM | HOP-62 23.8 µM | EKVX 19 µM | CCRF-CEM 13.8 µM

CC1=C2[C@H](c3ccccc3)C3C=CC2(c2ccccc23)N(C(=O)C(c2ccccc2)c2ccccc2)C1=O (some centres not stated)
inactive: M14 > 100 µM | MOLT-4 > 100 µM | SR > 100 µM | OVCAR-5 > 100 µM | LOX IMVI > 100 µM | 786-0 > 100 µM | COLO 205 > 100 µM | SF-539 > 100 µM | A549 > 100 µM | SK-MEL-28 > 100 µM | UACC-62 > 100 µM | UO-31 > 100 µM | HOP-62 > 100 µM | EKVX > 100 µM | CCRF-CEM > 100 µM

COc1ccc2c(c1)[n+]([O-])c(-c1ccc(C)cc1)c(N)[n+]2[O-]
inactive: SK-MEL-2 40.6 µM | M14 52.5 µM | SR > 100 µM | OVCAR-5 66.5 µM | 786-0 70.8 µM | COLO 205 20.2 µM | SF-539 86.1 µM | A549 55.3 µM | NCI-H522 16.3 µM | SK-MEL-28 89.5 µM | UO-31 55.1 µM | HOP-62 > 100 µM | EKVX 67.8 µM
